Experimental findings from ChEMBL document CHEMBL3526121, “Pharmacokinetics, bioavailability, tissue distribution, excretion, and metabolite identification of methoxyflavones in Kaempferia parviflora extract in rats” (Drug Metab Dispos, 2012) are described below.

A short description of series [1]: Drug excretion in Wistar rat urine at 750 mg/kg, po after 12 hrs by HPLC-UV analysis. It is filed as ADME, organism-based. Details: dose 750 mg/kg, route oral; call rule not given here. The following applies: in vivo.
Series [2] in a line: Drug excretion in Wistar rat feces at 750 mg/kg, po after 12 hrs by HPLC-UV analysis. It is filed as ADME, organism-based. Details: dose 750 mg/kg, route oral. The settings on record: in vivo.
The nature of series [3]: Drug metabolism in Wistar rat assessed as excretion of 3,5-dihydroxy-7-methoxy-2-(4-methoxyphenyl)-4H-chromen-4-one in urine/feces at 750 mg/kg, po by LC-MS and LC-MS/MS analysis. The settings on record: in vivo. It is filed as ADME, organism-based. Details: dose 750 mg/kg, route oral.
A short description of series [4]: Drug metabolism in Wistar rat assessed as excretion of 3,5-dihydroxy-2-(4-hydroxyphenyl)-7-methoxy-4H-chromen-4-one in feces at 750 mg/kg, po by LC-MS and LC-MS/MS analysis. It is filed as ADME, organism-based. On the set-up: dose 750 mg/kg, route oral. The following applies: in vivo.
The nature of series [5]: Drug metabolism in Wistar rat urine/feces treated with 750 mg/kg, po of 5,7,4'-trimethoxyflavone by LC-MS and LC-MS/MS analysis. It is filed as ADME, organism-based. Details: dose 750 mg/kg, route oral. The following applies: in vivo.
Series [6] is described as follows: Drug excretion in Wistar rat urine at 750 mg/kg, po after 72 hrs by HPLC-UV analysis. It is filed as ADME, organism-based. On the set-up: dose 750 mg/kg, route oral. The settings on record: in vivo.
Series [7] can be described thus: Drug excretion in Wistar rat urine at 750 mg/kg, po after 18 to 24 hrs by HPLC-UV analysis. It is filed as ADME, organism-based. On the set-up: dose 750 mg/kg, route oral. The settings on record: in vivo.
A short description of series [8]: Drug metabolism in Wistar rat assessed as excretion of 7-methoxy-4-oxo-2-phenyl-4H-chromen-5-yl hydrogen sulfate in urine at 750 mg/kg, po by LC-MS and LC-MS/MS analysis. It is filed as ADME, organism-based. The following applies: in vivo. On the set-up: dose 750 mg/kg, route oral.
Series [9] in a line: Drug excretion in Wistar rat feces at 750 mg/kg, po after 12 to 18 hrs by HPLC-UV analysis. It is filed as ADME, organism-based. On the set-up: dose 750 mg/kg, route oral. The following applies: in vivo.
Series [10] in a line: AUC in Wistar rat at 250 mg/kg, po by HPLC analysis. It is filed as ADME, organism-based. Details: dose 250 mg/kg, route oral. The following applies: plasma.
Series [11] in a line: AUC in Wistar rat at 250 mg/kg, iv by HPLC analysis. It is filed as ADME, organism-based. On the set-up: dose 250 mg/kg, route intravenous. The following applies: plasma.
A short description of series [12]: Half life in Wistar rat at 250 mg/kg, po by HPLC analysis. It is filed as ADME, organism-based. On the set-up: dose 250 mg/kg, route oral. The settings on record: in vivo.
Series [13] in a line: Half life in Wistar rat at 250 mg/kg, iv by HPLC analysis. It is filed as ADME, organism-based. On the set-up: dose 250 mg/kg, route intravenous. The settings on record: Wistar, in vivo.
A short description of series [14]: Elimination rate constant in Wistar rat at 250 mg/kg, po by HPLC analysis. Details: dose 250 mg/kg, route oral. It is filed as ADME, organism-based. The settings on record: in vivo, read-out: Ke (converted).
Series [15] is described as follows: Elimination rate constant in Wistar rat at 250 mg/kg, iv by HPLC analysis. The following applies: Wistar, in vivo, read-out: Ke (converted). It is filed as ADME, organism-based. Details: dose 250 mg/kg, route intravenous.
Series [16] is described as follows: Clearance in Wistar rat at 250 mg/kg, po by HPLC analysis. It is filed as ADME, organism-based. On the set-up: dose 250 mg/kg, route oral. The following applies: in vivo.
Series [17] can be described thus: Clearance in Wistar rat at 250 mg/kg, iv by HPLC analysis. It is filed as ADME, organism-based. Details: dose 250 mg/kg, route intravenous. The settings on record: in vivo.
Series [18] is described as follows: Tmax in Wistar rat at 250 mg/kg, po by HPLC analysis. It is filed as ADME, organism-based. On the set-up: dose 250 mg/kg, route oral. The settings on record: in vivo.
Series [19] in a line: Cmax in Wistar rat at 250 mg/kg, po by HPLC analysis. The following applies: in vivo. It is filed as ADME, organism-based. On the set-up: dose 250 mg/kg, route oral.
Series [20] has as its system Rattus norvegicus. The series can be described thus: Volume of distribution in Wistar rat at 250 mg/kg, po by HPLC analysis. It is filed as ADME, organism-based. On the set-up: dose 250 mg/kg, route oral. The settings on record: in vivo.
In series [21] the test system is Rattus norvegicus. The series can be described thus: Absorption rate constant in Wistar rat at 250 mg/kg, po by HPLC analysis. It is filed as ADME, organism-based. On the set-up: dose 250 mg/kg, route oral. The following applies: in vivo.
A short description of series [22]: Oral bioavailability in Wistar rat at 250 mg/kg by HPLC analysis. It is filed as ADME, organism-based. The settings on record: in vivo.
Series [23] has as its system Liver. The series can be described thus: AUC (0.083 to 4 hrs) in Wistar rat liver at 750 mg/kg, po by LC-MS/MS analysis. It is filed as ADME, organism-based. Details: time 0.083-4 hr, dose 750 mg/kg, route oral. The settings on record: in vivo.
For series [24], the system named is Kidney. The series can be described thus: AUC (0.083 to 4 hrs) in Wistar rat kidney at 750 mg/kg, po by LC-MS/MS analysis. It is filed as ADME, organism-based. On the set-up: time 0.083-4 hr, dose 750 mg/kg, route oral. The settings on record: in vivo.
In series [25] the test system is Lung. The series can be described thus: AUC (0.083 to 4 hrs) in Wistar rat lung at 750 mg/kg, po by LC-MS/MS analysis. On the set-up: time upper 4 hr, time lower 0.083 hr, dose 750 mg/kg, route oral. It is filed as ADME, organism-based. The settings on record: in vivo.
Series [26] concerns Brain. The series can be described thus: AUC (0.083 to 4 hrs) in Wistar rat brain at 750 mg/kg, po by LC-MS/MS analysis. It is filed as ADME, organism-based. Details: time 0.083-4 hr, dose 750 mg/kg, route oral. The following applies: in vivo.
The nature of series [27]: Cmax in Wistar rat liver at 750 mg/kg, po by LC-MS/MS analysis. On the set-up: dose 750 mg/kg, route oral. It is filed as ADME, organism-based.
Series [28] can be described thus: Cmax in Wistar rat kidney at 750 mg/kg, po by LC-MS/MS analysis. On the set-up: dose 750 mg/kg, route oral. It is filed as ADME, organism-based.
Series [29] is described as follows: Cmax in Wistar rat lung at 750 mg/kg, po by LC-MS/MS analysis. It is filed as ADME, organism-based. On the set-up: dose 750 mg/kg, route oral.
Series [30] can be described thus: Cmax in Wistar rat brain at 750 mg/kg, po by LC-MS/MS analysis. It is filed as ADME, organism-based. Details: dose 750 mg/kg, route oral.
The nature of series [31]: Cmax in Wistar rat testes at 750 mg/kg, po by LC-MS/MS analysis. It is filed as ADME, organism-based, Testis. On the set-up: dose 750 mg/kg, route oral.
A short description of series [32]: Tmax in Wistar rat liver at 750 mg/kg, po by LC-MS/MS analysis. It is filed as ADME, organism-based. Details: dose 750 mg/kg, route oral.
Series [33] can be described thus: Tmax in Wistar rat kidney at 750 mg/kg, po by LC-MS/MS analysis. It is filed as ADME, organism-based. Details: dose 750 mg/kg, route oral.
A short description of series [34]: Tmax in Wistar rat lung at 750 mg/kg, po by LC-MS/MS analysis. Details: dose 750 mg/kg, route oral. It is filed as ADME, organism-based.
Series [35] in a line: Tmax in Wistar rat brain at 750 mg/kg, po by LC-MS/MS analysis. It is filed as ADME, organism-based. Details: dose 750 mg/kg, route oral.
Series [36] in a line: Tmax in Wistar rat testes at 750 mg/kg, po by LC-MS/MS analysis. It is filed as ADME, organism-based, Testis. On the set-up: dose 750 mg/kg, route oral.
Series [37] in a line: Drug metabolism in Wistar rat assessed as excretion of 5,7-dihydroxy-2-phenyl-4H-chromen-4-one in urine/feces at 750 mg/kg, po by LC-MS and LC-MS/MS analysis. It is filed as ADME, organism-based. Details: dose 750 mg/kg, route oral. The settings on record: in vivo.
The nature of series [38]: Drug metabolism in Wistar rat assessed as excretion of 2-phenyl-5-((2S,3R,4S,5S,6R)-3,4,5-trihydroxy-6-(hydroxymethyl)tetrahydro-2H-pyran-2-yloxy)-4H-chromen-4-one in urine at 750 mg/kg, po by LC-MS and LC-MS/MS analysis. On the set-up: dose 750 mg/kg, route oral. It is filed as ADME, organism-based. The settings on record: in vivo.
Series [39] can be described thus: Drug excretion in Wistar rat urine at 750 mg/kg, po after up to 72 hrs by HPLC-UV analysis. It is filed as ADME, organism-based. On the set-up: dose 750 mg/kg, route oral. The following applies: read-out: Drug excretion.
Series [40] can be described thus: Drug excretion in Wistar rat feces at 750 mg/kg, po after up to 72 hrs by HPLC-UV analysis. It is filed as ADME, organism-based. Details: dose 750 mg/kg, route oral. The settings on record: faeces, read-out: Drug excretion.
Series [41] is described as follows: AUC (0.083 to 4 hrs) in Wistar rat testes at 750 mg/kg, po by LC-MS/MS analysis. It is filed as ADME, organism-based, Testis. Details: time 0.083-4 hr, dose 750 mg/kg, route oral. The settings on record: in vivo.

Consider `COc1cc(O)c2c(=O)c(OC)c(-c3ccccc3)oc2c1`, for which the Drug excretion entry in series [1] and in series [2] was “Active” each time.

Turning to `COc1ccc(-c2oc3cc(OC)cc(OC)c3c(=O)c2OC)cc1` [TETRAMETHYLKAEMPFEROL], the Drug metabolism result in [3] and in [4] was “metabolite_detected” each time.

Turning to `COc1ccc(-c2cc(=O)c3c(O)cc(OS(=O)(=O)O)cc3o2)cc1`, the Drug metabolism entry in [5] was “metabolite_detected”.

With `COc1cc(OC)c2c(=O)cc(-c3ccccc3)oc2c1` [CHRYSIN DIMETHYL ETHER], the Drug excretion entry in series [6] is “metabolite_not_detected”; in series [7], “Active”; in series [9], “Active”; in [1], “Active”; in series [2], “Active”. Besides, the Drug metabolism entry in series [8], in [37] and in [38] was “metabolite_detected” throughout. The AUC in [10] worked out at 7.01 µg·h/mL; in series [11] it was 233 µg·h/mL; in [23], 8.6 µg·h/g; in [24], 2.51 µg·h/g; in [25] it was 2.17 µg·h/g; in series [26], 1.91 µg·h/g. This compound displayed an AUC in [41] of 1.9 µg·h/g. The half-life is 5.85 h in [12] and 3.75 h in [13]. Also, the results for the k el in series [14] and in series [15] were 3.61e-05 s⁻¹ and 8.89e-05 s⁻¹, respectively. The compound further showed a CL/F in [16] of 6.12 mL/min. The same compound had a clearance in series [17] of 0.133 mL/min. The Tmax in [18] was 0.76 h; in series [32], 2.57 h; in series [33] it was 3.43 h; in series [34] it was 1.2 h; in series [35] it was 3.14 h; in [36] it was 2.86 h. The Cmax came out at 780 ng/mL in series [19]; 3850 ng/g in series [27]; 1330 ng/g in [28]; 2000 ng/g in series [29]; 960 ng/g in [30]; 910 ng/g in series [31]. The compound further came in with a Vd in series [20] of 2957.53 mL. Besides, the ka in [21] was 8.69 h⁻¹. Moreover, the bioavailability in series [22] is 2.1%. In addition, the values for the dose excreted at 72 h in [39] and in series [40] were 0.96% and 3.1%, respectively.
